Data set [1] relates to endonuclease G (EndoG). As to the kind of experiment: EndoG immunocytochemistry combined with TUNEL (caspase-independent apoptosis). The conditions noted are these: melanoma cells, 24 h. It counts as cell-based. The text has this:
(§1) The elevation was dose-dependent.
(§2) Figure 4. […] (c) Representative images. […] Mean ± s.e.m., n = 4 per group.
(§3) Figure 5. […] (a) Representative images of TUNEL colocalized or not colocalized with each of the three protein markers used in this study. […] Mean ± s.e.m., n = 4 per group.
(§4) Thus, to determine the mechanism of action of our compounds on melanoma cells in vitro, we applied the fluorescent TUNEL assay combined with quantitative ICC for three markers: HO1 for oxidative cell injury, CAD for caspase-mediated apoptosis and EndoG for caspase-independent apoptosis. […] However, none of the compounds or dacarbazine induced apoptotic endonucleases. This is not surprising because apoptotic endonucleases are commonly present in the cell in sufficient amounts to be able to destroy DNA upon cell death without induction (which most likely would not be possible in a dead cell).

For data set [2], the system named is HFF-1 cell line. As to the kind of experiment: Toxicity for normal human foreskin fibroblast cell line. It counts as cell-based. Conditions: normal human foreskin fibroblast HFF-1. An excerpt:
To assess the potential use of lead compounds as anti-melanoma agents, we tested their toxicity for the normal human foreskin fibroblast (HFF-1) cell line taking into consideration that MM is usually surrounded by the cells of this kind. The effects of some of the potent compounds on this cell line were very encouraging (table 4).

Data set [3] has as its system heme oxygenase-1 (HO1). As to the kind of experiment: HO1 immunocytochemistry combined with TUNEL (oxidative injury). It counts as cell-based. The conditions noted are these: melanoma cells, 5 or 10 µM, 24 h.
Text: as §1, §2, §3, §4

The test system of data set [4] is caspase-activated DNase (CAD). Nature of the data set: CAD immunocytochemistry combined with TUNEL (caspase-mediated apoptosis). In kind it is cell-based. Conditions: melanoma cells, 5 or 10 µM, 24 h.
Text: as §1, §2, §3, §4

Data set [5] relates to SK-MEL-28 cell line. As to the kind of experiment: Annexin V flow cytometry apoptosis assay. In kind it is cell-based. Conditions: SK-MEL-28, 200 µM. How it is done: After determining the selective toxicity of potent molecules, we determined their mode of action against the melanoma cell line. Apoptosis or programmed cell death is a physiological process to remove unwanted or damaged mammalian cells. We detected apoptosis mode of cell death by our potent compounds using flow cytometry-based Annexin V assay. Compound 3 caused 23% apoptosis at 6 µM and 54% apoptosis at 12 µM (figure 3). 3-Fluorophenyl derivative (5) was a very potent apoptosis-inducing agent that caused 100% cell death at 12 µM concentration. Dacarbazine, the positive control, caused 22% apoptotic cell death at 200 µM concentration.
Figure 3. Apoptosis measurements using Annexin V flow cytometry assay of compounds 3 and 5 against SK-MEL-28 cell line at 6 and 12 µM concentrations. DMSO and dacarbazine (Daca) are negative and positive controls, respectively. Mean ± s.e.m., n = 3 per group.

In data set [6] the test system is melanoma cells. As to the kind of experiment: TUNEL staining for DNA fragmentation and irreversible cell death. Conditions: 5 or 10 µM, 24 h. The text has this:
Apoptosis is usually associated with profound DNA fragmentation that makes the cell death irreversible. DNA fragmentation could be due to the increasing of nuclear DNA access to apoptotic endonucleases and the induction of these enzymes. This DNA fragmentation is best measured by using the terminal deoxynucleotidyl transferase dUTP nick-end labelling (TUNEL) assay. […] Immunostaining for major marker of oxidative injury, heme oxygenase-1 (HO1) was done to determine whether the test compounds induce oxidative injury. […] Activation of endonucleases and their translocation to the nucleus is actually the last step when cell death becomes irreversible. It is often preceded by an oxidative cell injury that activates or aggravates the cell death mechanism. To measure whether our compounds induce oxidative injury, we chose to measure HO1 which is a well-established mechanistic marker of oxidative injury. Because HO1 is not a nuclear marker and it is not translocated to the nucleus and contact DNA during cell death, instead of colocalization by pixels, we counted the percentage of TUNEL-positive (dead) cells which are also HO1-positive (figure 5a). […] We next examined whether caspase-activated DNase (CAD), a known mechanistic marker of caspase-mediated apoptosis, is colocalized with TUNEL during cell death induced by dacarbazine or our test compounds (3, 4 and 5).
Figure 4. […]

Data set [7] relates to LOX IMVI. As to the kind of experiment: NCI DTP 60 cell line five-concentration test, melanoma panel. It counts as cell-based. Conditions: Homo sapiens; LOX IMVI melanoma cell line. How it is done:
(§5) In our effort to develop new methodologies to synthesize bioactive compounds [11–14], we have synthesized a number of thiazole and thiazolo-androstenone derivatives. We submitted 50 of the synthesized thiazole–androstenone derivatives to the National Cancer Institute (NCI) Development Therapeutics Program (DTP) to test against 60 cancer cell lines (https://dtp.cancer.gov/). These compounds were tested for cytotoxicity at a single dose of 10 µM. […] Eight of these chimeric compounds (figure 2) were selected for further testing at five different concentrations to determine 50% growth inhibition (GI50), total growth inhibition (TGI) and 50% lethal concentration (LC50) values. […] Overall, amino-thiazole derivatives (table 1, 1–7) were more toxic to melanoma cell lines than phenyl thiazole derivatives (8). Fluoro and oxy (hydroxy and methoxy) derivatives were the potent growth inhibitors of the tested cancer cell lines. LOX IMVI cell line was the most susceptible among all the melanoma cell lines used against the tested compounds (table 1). […] Phenyl ethyl derivative (1) inhibited the growth of all the cell lines except SK-MEL-2. […] 2,4-Dimethyl substituted derivative (7) is a potent growth inhibitor of all the tested cell lines of the melanoma panel.

Data set [8] deals with SK-MEL-2. The description is as above. It counts as cell-based. The conditions noted are these: Homo sapiens; SK-MEL-2 melanoma cell line. How it is done: as §5
In data set [9] the test system is MDA-MB-435. The data set is described as above. It counts as cell-based. Conditions: Homo sapiens; MDA-MB-435 melanoma cell line. How it is done:
as §5

The test system of data set [10] is UACC-62. The data set is described as above. The conditions noted are these: Homo sapiens, UACC-62, UACC-62 melanoma cell line. It counts as cell-based. As for the experimental part: as §5
The test system of data set [11] is UACC-257. Described as above. It counts as cell-based. Conditions: Homo sapiens; UACC-257 melanoma cell line. How it is done:
as §5

The subject of data set [12] is SK-MEL-28. The data set is described as above. The conditions noted are these: Homo sapiens, SK-MEL-28, SK-MEL-28 melanoma cell line. It counts as cell-based. As for the experimental part: as §5
In data set [13] the test system is MALME-3M. The data set is described as above. Conditions: Homo sapiens; MALME-3M melanoma cell line. It counts as cell-based. As for the experimental part:
as §5

In data set [14] the test system is SK-MEL-5. The description is as above. It counts as cell-based. The conditions noted are these: Homo sapiens; SK-MEL-5 melanoma cell line. How it is done:
as §5

In data set [15] the test system is M14. The description is as above. The conditions noted are these: Homo sapiens, M14, M14 melanoma cell line. It counts as cell-based. As for the experimental part: as §5
Data set [16] has as its system melanoma panel. Nature of the data set: NCI DTP test, statements for the whole melanoma panel. In kind it is cell-based. As for the experimental part: as §5

Each structure is given as a SMILES string. pIC50: −log10 of the molar value. Bounds are passed on as bounds.

The term pIC50 denotes the IC50 on a negative log10 scale, so that one unit is a factor of ten. Consider `CN(C)/N=N/c1[nH]cnc1C(N)=O` [dacarbazine, reference compound], for which the “EndoG overlap with TUNEL staining (caspase-independent apoptosis)” value in data set [1] (5 µM) is recorded as “did not show any effect”; in data set [1] (10 µM), “significant increase”. In addition, the EndoG mean intensity entry in data set [1] (5 or 10 µM) is “No significant induction”. In [2], the “toxicity against HFF1 cells (in words)” value is “did not show any notable toxicity”. For the same compound, in data set [2] (read-out: IC50 against HFF1 cell line), the pIC50 was less than 4.00. Further, in data set [3], the “HO1 staining in TUNEL-positive cells (oxidative injury)” value is “without induction of HO1”. Moreover, the CAD mean intensity entry in data set [4] is listed as “No significant induction”. In addition, the “colocalization of CAD with TUNEL (caspase-mediated apoptosis)” value in [4] is recorded as “did not induce any association of CAD with TUNEL”. In [5], this compound yielded an apoptotic cell death of 22%. The “cytotoxicity by TUNEL staining (TUNEL-positivity)” value in data set [6] is “negligent”.
A word on the GI50: it is the concentration that inhibits growth by half. Higher therefore signals less potent growth inhibition. In the case of `C[C@]12CCc3nc(Nc4ccc(F)cc4F)sc3C1=CC[C@@H]1[C@@H]2CC[C@]2(C)C(=O)CC[C@@H]12` [Compound 6], the GI50 in data set [7] was 1.71 µM; in [8], more than 100 µM; in data set [9] it was more than 100 µM; in data set [10], more than 100 µM; in [11], more than 100 µM; in data set [12], more than 100 µM. The figures for the GI50 in [13], in data set [14] and in [15] were more than 100 µM, 1.88 µM and more than 100 µM, respectively. Moreover, the “TGI values against the cell lines of the melanoma panel” value in data set [16] was “did not show any useful TGI values”.

For the origin of these results see publication PMC8355692, “Antimelanoma activities of chimeric thiazole–androstenone derivatives” (Royal Society Open Science, 2021).
